Test system: Micrococcus flavus ATCC 10240, Sarcina lutea ATCC 9341 and Staph. epidermidis ATCC 12228
Assay: antibacterial activity compared with tetracycline, statement for three organisms
Type: cell-based
Conditions: strongest activity against M. flavus ATCC 10240, Sarcina lutea ATCC 9341, Staph. epidermidis ATCC 12228

Compound	activity relative to that of tetracycline
Cc1ccc(S(=O)(=O)NC2C(O)=C(C(N)=O)C(=O)C3(O)C(=O)c4c(c(C)c5cccc(O)c5c4O)CC23)cc1 (stereo not shown) [Compound 2, 4-p-toluene-sulfonamido-5a,6-anhydrotetracycline]	considerably superior or equal to that of tetracycline
Cc1c2c(c(O)c3c(O)cccc13)C(=O)C1(O)C(=O)C(C(N)=O)=C(O)C(NS(=O)(=O)c3ccc(F)cc3)C1C2 (stereo not shown) [Compound 3, 4-p-fluorbenzenesulfonamido-5a,6-anhydrotetracycline]	considerably superior or equal to that of tetracycline
Cc1c2c(c(O)c3c(O)cccc13)C(=O)C1(O)C(=O)C(C(N)=O)=C(O)C(NS(=O)(=O)c3ccc(Br)cc3)C1C2 (stereo not shown) [Compound 4, 4-p-bromobenzenesulfonamido-5a,6-anhydrotetracycline]	considerably superior or equal to that of tetracycline
CCc1ccc(S(=O)(=O)NC2C(O)=C(C(N)=O)C(=O)C3(O)C(=O)c4c(c(C)c5cccc(O)c5c4O)CC23)cc1 (stereo not shown) [Compound 6, 4-p-ethylbenzenesulfonamido-5a,6-anhydrotetracycline]	considerably superior or equal to that of tetracycline

Reference: US4160783A, “4-Dedimethylamino-4-arylsulfonamido-5a,6-anhydrotetracyclines” (PLIVA Pharmaceutical and Chemical Works, priority 1976, dated 1979)
